Laboratory results taken from BigSolDB 2.1.

NCCCCCC(=O)O
solubility (mole fraction) (in ethyl acetate, 283.15 K): 0.000146
solubility (mole fraction) (in ethyl acetate, 288.15 K): 0.00016
solubility (mole fraction) (in ethyl acetate, 293.15 K): 0.000174
solubility (mole fraction) (in ethyl acetate, 298.15 K): 0.000188
solubility (mole fraction) (in ethyl acetate, 303.15 K): 0.0002
solubility (mole fraction) (in ethyl acetate, 308.15 K): 0.000221
solubility (mole fraction) (in ethyl acetate, 313.15 K): 0.000241
solubility (mole fraction) (in ethyl acetate, 318.15 K): 0.000262
solubility (mole fraction) (in ethyl acetate, 323.15 K): 0.000289
solubility (mole fraction) (in isopropanol, 283.15 K): 7.7e-05
solubility (mole fraction) (in isopropanol, 288.15 K): 8.1e-05
solubility (mole fraction) (in isopropanol, 293.15 K): 9.2e-05
solubility (mole fraction) (in isopropanol, 298.15 K): 0.000108
solubility (mole fraction) (in isopropanol, 303.15 K): 0.000123
solubility (mole fraction) (in isopropanol, 308.15 K): 0.000142
solubility (mole fraction) (in isopropanol, 313.15 K): 0.000162
solubility (mole fraction) (in isopropanol, 318.15 K): 0.000181
solubility (mole fraction) (in isopropanol, 323.15 K): 0.0002
solubility (mole fraction) (in methyl acetate, 283.15 K): 0.000119
solubility (mole fraction) (in methyl acetate, 288.15 K): 0.000129
solubility (mole fraction) (in methyl acetate, 293.15 K): 0.00014
solubility (mole fraction) (in methyl acetate, 298.15 K): 0.000146
solubility (mole fraction) (in methyl acetate, 303.15 K): 0.000154
solubility (mole fraction) (in methyl acetate, 308.15 K): 0.000161
solubility (mole fraction) (in methyl acetate, 313.15 K): 0.000166
solubility (mole fraction) (in methyl acetate, 318.15 K): 0.00017
solubility (mole fraction) (in methyl acetate, 323.15 K): 0.000172
solubility (mole fraction) (in water, 283.15 K): 0.118
solubility (mole fraction) (in water, 288.15 K): 0.126
solubility (mole fraction) (in water, 293.15 K): 0.13
solubility (mole fraction) (in water, 298.15 K): 0.137
solubility (mole fraction) (in water, 303.15 K): 0.145
solubility (mole fraction) (in water, 308.15 K): 0.152
solubility (mole fraction) (in water, 313.15 K): 0.155
solubility (mole fraction) (in water, 318.15 K): 0.16
solubility (mole fraction) (in water, 323.15 K): 0.167
